Reference: patent US5593984A, “Cephalosporin derivatives” (Yuhan Corporation, priority 1992, dated 1997)
Values after ≈ are worked out from the molar mass of the structure shown.

Assays:
Type in all cases: cell-based
[1] = system: P. vulgaris NCTC 8313; assay: MIC by agar dilution, P. vulgaris NCTC 8313; conditions: Proteus vulgaris, NCTC8313, 17 h; P. vulgaris NCTC 8313; agar dilution, Mueller-Hinton agar; read-out: Minimal Inhibitory Concentration (MIC)
Procedure: (§1) These MIC values were determined by agar dilution method: that is, two-fold dilutions of each of the test compounds were made and dispersed in a Mueller-Hinton agar medium; standard test strain which had the 10^6 CFU (Colony Forming Unit) per ml was inoculated on the medium with microplanter (Toyo, Japan), and incubated at 35°-37° C. for 17±1 hours. The structures of Ceftazidime (CAZ) and Cefotaxime (CTX) which are used as control compounds are as follows: [drawing 12]

[2] = system: Ps. aeruginosa NCTC 10490; assay: MIC by agar dilution, Ps. aeruginosa NCTC 10490; conditions: Pseudomonas aeruginosa, NCTC10490, 17 h, Mueller-Hinton agar, read-out: Minimal Inhibitory Concentration (MIC)
Procedure: as §1

[3] = system: Ps. aeruginosa DY-2; assay: MIC by agar dilution, Ps. aeruginosa DY-2; conditions: Pseudomonas aeruginosa, DY2, 17 h; Ps. aeruginosa DY-2; agar dilution, Mueller-Hinton agar; read-out: Minimal Inhibitory Concentration (MIC)
Procedure: as §1

[4] = system: Staph. aureus C-5216; assay: MIC by agar dilution, Staph. aureus C-5216; conditions: Staphylococcus aureus, C5216, 17 h, Mueller-Hinton agar, read-out: Minimal Inhibitory Concentration (MIC)
Procedure: as §1

[5] = system: S. epidermidis ATCC 12228; assay: MIC by agar dilution, S. epidermidis ATCC 12228; conditions: Staphylococcus epidermidis, ATCC12228, 17 h; S. epidermidis ATCC 12228; agar dilution, Mueller-Hinton agar; read-out: Minimal Inhibitory Concentration (MIC)
Procedure: as §1

[6] = system: Ps. aeruginosa ATCC 10145; assay: MIC by agar dilution, Ps. aeruginosa ATCC 10145; conditions: Pseudomonas aeruginosa, ATCC10145, 17 h, Mueller-Hinton agar, read-out: Minimal Inhibitory Concentration (MIC)
Procedure: as §1

[7] = system: Prov. stuartii IFO 12930; assay: MIC by agar dilution, Prov. stuartii IFO 12930; conditions: Providencia stuartii, IFO12930, 17 h, Mueller-Hinton agar, read-out: Minimal Inhibitory Concentration (MIC)
Procedure: as §1

[8] = system: Ent. cloacae IFO 13535; assay: MIC by agar dilution, Ent. cloacae IFO 13535; conditions: Enterobacter cloacae, IFO13535, 17 h; Ent. cloacae IFO 13535; agar dilution, Mueller-Hinton agar; read-out: Minimal Inhibitory Concentration (MIC)
Procedure: as §1

[9] = system: E. coli NIHJ JC-2; assay: MIC by agar dilution, E. coli NIHJ JC-2; conditions: Escherichia coli, NIHJJC2, 17 h; E. coli NIHJ JC-2; agar dilution, Mueller-Hinton agar; read-out: Minimal Inhibitory Concentration (MIC)
Procedure: as §1

[10] = system: B. subtilis ATCC 6633; assay: MIC by agar dilution, B. subtilis ATCC 6633; conditions: Bacillus subtilis, ATCC6633, 17 h; B. subtilis ATCC 6633; agar dilution, Mueller-Hinton agar; read-out: Minimal Inhibitory Concentration (MIC)
Procedure: as §1

[11] = system: Staph. aureus C-5113; assay: MIC by agar dilution, Staph. aureus C-5113; conditions: Staphylococcus aureus, C5113, 17 h, Mueller-Hinton agar, read-out: Minimal Inhibitory Concentration (MIC)
Procedure: as §1

[12] = system: Staph. aureus Smith; assay: MIC by agar dilution, Staph. aureus Smith; conditions: Staphylococcus aureus, 17 h, Mueller-Hinton agar, read-out: Minimal Inhibitory Concentration (MIC)
Procedure: as §1

[13] = system: Ent. aerogenes IFO 12979; assay: MIC by agar dilution, Ent. aerogenes IFO 12979; conditions: Klebsiella aerogenes, IFO12979, 17 h, Mueller-Hinton agar, read-out: Minimal Inhibitory Concentration (MIC)
Procedure: as §1

[14] = system: E. coli DY-1; assay: MIC by agar dilution, E. coli DY-1; conditions: Escherichia coli, DY1, 17 h; E. coli DY-1; agar dilution, Mueller-Hinton agar; read-out: Minimal Inhibitory Concentration (MIC)
Procedure: as §1

[15] = system: M. morganii DY-1; assay: MIC by agar dilution, M. morganii DY-1; conditions: Morganella morganii, DY1, 17 h; M. morganii DY-1; agar dilution, Mueller-Hinton agar; read-out: Minimal Inhibitory Concentration (MIC)
Procedure: as §1

[16] = system: Staph. aureus ATCC 6538P; assay: MIC by agar dilution, Staph. aureus ATCC 6538P; conditions: Staphylococcus aureus, ATCC6538P, 17 h; Staph. aureus ATCC 6538P; agar dilution, Mueller-Hinton agar; read-out: Minimal Inhibitory Concentration (MIC)
Procedure: as §1

[17] = system: K. pneumoniae NCTC 9632; assay: MIC by agar dilution, K. pneumoniae NCTC 9632; conditions: Klebsiella pneumoniae, NCTC9632, 17 h; K. pneumoniae NCTC 9632; agar dilution, Mueller-Hinton agar; read-out: Minimal Inhibitory Concentration (MIC)
Procedure: as §1

[18] = system: Staph. aureus C-57; assay: MIC by agar dilution, Staph. aureus C-57; conditions: Staphylococcus aureus, C57, 17 h, Mueller-Hinton agar, read-out: Minimal Inhibitory Concentration (MIC)
Procedure: as §1

[19] = system: E. coli No. 29; assay: MIC by agar dilution, E. coli No. 29; conditions: Escherichia coli, 17 h; E. coli No. 29; agar dilution, Mueller-Hinton agar; read-out: Minimal Inhibitory Concentration (MIC)
Procedure: as §1

[20] = system: Ser. marcescens IFO 12648; assay: MIC by agar dilution, Ser. marcescens IFO 12648; conditions: Serratia marcescens, IFO12648, 17 h; Ser. marcescens IFO 12648; agar dilution, Mueller-Hinton agar; read-out: Minimal Inhibitory Concentration (MIC)
Procedure: as §1

MIC [1] [µg/mL] | MIC [2] [µg/mL] | MIC [3] [µg/mL] | MIC [4] [µg/mL] | MIC [5] [µg/mL] | MIC [6] [µg/mL] | MIC [7] [µg/mL] | MIC [8] [µg/mL] | MIC [9] [µg/mL] | MIC [10] [µg/mL] | MIC [11] [µg/mL] | MIC [12] [µg/mL] | MIC [13] [µg/mL] | MIC [14] [µg/mL] | MIC [15] [µg/mL] | MIC [16] [µg/mL] | MIC [17] [µg/mL] | MIC [18] [µg/mL] | MIC [19] [µg/mL] | MIC [20] [µg/mL] | Compound
≤ 0.006 | 0.05 (≈ 0.0912 µM) | 3.13 (≈ 5.71 µM) | 0.2 (≈ 0.365 µM) | 0.025 (≈ 0.0456 µM) | 0.78 (≈ 1.42 µM) | 0.025 (≈ 0.0456 µM) | 0.39 (≈ 0.712 µM) | 0.1 (≈ 0.182 µM) | 0.025 (≈ 0.0456 µM) | 0.2 (≈ 0.365 µM) | 0.2 (≈ 0.365 µM) | 0.012 (≈ 0.0219 µM) | 0.012 (≈ 0.0219 µM) | 0.05 (≈ 0.0912 µM) | 0.05 (≈ 0.0912 µM) | 0.05 (≈ 0.0912 µM) | 1.56 (≈ 2.85 µM) | 0.05 (≈ 0.0912 µM) | 0.1 (≈ 0.182 µM) | CO/N=C(\C(=O)N[C@@H]1C(=O)N2C(C(=O)[O-])=C(C[n+]3ccn4cccc4c3)CS[C@H]12)c1nc(N)sc1Cl [Ex. 47, 7-β-[(Z)-2-(2-amino-5-chlorothiazol-4-yl)-2-methoxyiminoacetamido]-3-(pyrrolo[1,2-a]pyrazinium-2-yl)methyl-3-cephem-4-carboxylate]
0.012 (≈ 0.0216 µM) | 0.2 (≈ 0.36 µM) | 6.25 (≈ 11.2 µM) | 1.56 (≈ 2.81 µM) | 0.05 (≈ 0.09 µM) | 1.56 (≈ 2.81 µM) | 0.012 (≈ 0.0216 µM) | 0.1 (≈ 0.18 µM) | 0.012 (≈ 0.0216 µM) | 0.2 (≈ 0.36 µM) | 0.78 (≈ 1.4 µM) | 0.78 (≈ 1.4 µM) | 0.012 (≈ 0.0216 µM) | 0.012 (≈ 0.0216 µM) | 0.025 (≈ 0.045 µM) | 0.2 (≈ 0.36 µM) | 0.025 (≈ 0.045 µM) | 25 (≈ 45 µM) | 0.025 (≈ 0.045 µM) | 0.012 (≈ 0.0216 µM) | CON=C(C(=O)NC1C(=O)N2C(C(=O)[O-])=C(C[n+]3ccn4c(C(C)=O)ccc4c3)CSC12)c1csc(N)n1 (stereo not drawn) [Ex. 18, 7-β-[(Z)-2-(2-aminothiazol-4-yl)-2-methoxyiminoacetamido]-3-(6-acetylpyrrolo[1,2-a]pyrazinium-2-yl)methyl-3-cephem-4-carboxylate]
0.1 (≈ 0.169 µM) | 0.78 (≈ 1.32 µM) | 6.25 (≈ 10.6 µM) | 3.13 (≈ 5.3 µM) | 3.39 (≈ 5.74 µM) | 0.78 (≈ 1.32 µM) | 0.025 (≈ 0.0423 µM) | 0.1 (≈ 0.169 µM) | 0.025 (≈ 0.0423 µM) | 0.2 (≈ 0.339 µM) | 3.13 (≈ 5.3 µM) | 3.13 (≈ 5.3 µM) | 0.025 (≈ 0.0423 µM) | 0.025 (≈ 0.0423 µM) | 0.05 (≈ 0.0846 µM) | 0.78 (≈ 1.32 µM) | 0.025 (≈ 0.0423 µM) | 25 (≈ 42.3 µM) | 0.05 (≈ 0.0846 µM) | 0.05 (≈ 0.0846 µM) | CO/N=C(\C(=O)N[C@@H]1C(=O)N2C(C(=O)[O-])=C(C[n+]3ccn4c(SCCO)ccc4c3)CS[C@H]12)c1nsc(N)n1 [Ex. 53, 7-β-[(Z)-2-(5-amino-1,2,4-thiadiazol-3-yl)-2-methoxyiminoacetamido]-3-[6-(2-hydroxyethylthio)pyrrolo[1,2-a]-pyrazinium-2-yl]methyl-3-cephem-4-carboxylate]
≤ 0.006 | 0.2 (≈ 0.359 µM) | 6.25 (≈ 11.2 µM) | 1.56 (≈ 2.8 µM) | 0.05 (≈ 0.0897 µM) | 0.78 (≈ 1.4 µM) | ≤ 0.006 | 0.012 (≈ 0.0215 µM) | ≤ 0.006 | 0.2 (≈ 0.359 µM) | 1.56 (≈ 2.8 µM) | 1.56 (≈ 2.8 µM) | ≤ 0.006 | ≤ 0.006 | ≤ 0.006 | 0.39 (≈ 0.699 µM) | ≤ 0.006 | 50 (≈ 89.7 µM) | ≤ 0.006 | ≤ 0.006 | CO/N=C(\C(=O)N[C@@H]1C(=O)N2C(C(=O)[O-])=C(C[n+]3cc(C(=O)O)n4cccc4c3)CS[C@H]12)c1csc(N)n1 [Ex. 39, 7-β-[(Z)-2-(2-aminothiazol-4-yl)-2-methoxyiminoacetamido]-3-(4-carboxypyrrolo[1,2-a]pyrazinium-2-yl)methyl-3-cephem-4-carboxylate]
